Reference: publication PMC12428754, “Testing Strategies for Metabolite-Mediated Neurotoxicity” (International Journal of Molecular Sciences, 2025)
Where two headings read alike, the source gives them in different places.

What was measured:
LUHMES cells = experiment: MitoMet (UKN4b) neurite outgrowth assay; format: cell-based, human; conditions: for IC25: read-out: BMC25 neurite outgrowth; for fold change between BMC25 values of parent and metabolite (potency ratio, parent divided by metabolite): listed under the metabolite, >1 = metabolite more potent
Method: Figure 1 (A) A strategy scheme to assess metabolite-mediated hazard in NAMs used for neurotoxicity or developmental neurotoxicity. Parent and metabolite compounds are tested separately in the respective assay. This strategy is applicable when there is prior knowledge of metabolite formation. A decision rule based on the relative toxicities (X) of the parent and metabolite may be applied to decide whether next-generation risk assessment (NGRA) should be applied to the metabolite. The value of X may be defined according to the problem formulation and the NAM used. (B) An assay scheme of the neurite outgrowth assay used here for exemplification: Proliferating LUHMES cells were replated one day before differentiation was initiated (day −1). After two days (day 2) in differentiation medium, the cells were replated into assay format (96-well). At this point, neurite growth was re-initiated. The cells were treated with toxicants 1 h after replating. Neurite outgrowth and viability were determined 24 h later, using automated high content imaging. (C) Comparison of neurite outgrowth of cultures treated with bromethalin and desmethyl-bromethalin one exemplary parent/metabolite pair (chemical structures shown). […] The curves are based on data from three independent experiments and were fitted using a four-parameter Hill function. Data points shown are arithmetic means of data from independent experiments ±SEM. In each independent experiment, the technical replicates were measured and averaged. A benchmark response (BMR) of 25% was used as specified in the detailed assay description, and the respective benchmark concentration (BMC25) was determined. […] (D) Microscopic images of calcein-stained LUHMES cells. Similar images are used for neurite quantification. Treatment with 40 nM of the parent (left) or metabolite (right). The scale bar in orange corresponds to 50 µm. […] It stands under panel C and to the right of panel D, and was assigned to C.
The MitoMet neurite outgrowth assay was performed as previously described. In brief, all cell culture dishes and flasks were pre-coated with 50 μg/mL poly-l-ornithine (PLO) and 1 μg/mL fibronectin. Proliferating LUHMES cells were maintained in AdvDMEM/F12 containing L-glutamine (2 mM), N2 supplement (1x), and FGF (40 ng/mL). For pre-differentiation, the cells were replated at a density of 46,000 cells/cm^2 one day prior to the induction of differentiation (defined as the day of differentiation, Day −1). Differentiation was initiated by exchanging the culture medium for AdvDMEM/F12 supplemented with L-glutamine (2 mM), N2 supplement (1x), dibutyryl-cAMP (1 mM), tetracycline (1 µg/mL), and GDNF (2 ng/mL). After two days of differentiation (Day 2), the cells were replated (100,000 cells/cm^2) into 96-well plates. The final assay medium consisted of glucose-free AdvDMEM/F12 supplemented with galactose (18 mM), L-glutamine (2 mM), and tetracycline (1 µg/mL). One hour after replating, the cells were treated with a 10× concentrated stock solution of the test compound. Neurite outgrowth and viability were determined 24 h later, using automated high content imaging.
The image acquisition and analysis were conducted according to established protocols. The cells were stained with Hoechst H-33342 (1 µg/mL) to visualise nuclei and calcein-AM (1 µM) to label viable cell structures. Fluorescent images were acquired using an automated imaging system.

[1] = tested on: hiPSC-derived neural crest-like cells; experiment: S9 metabolisation module followed by cMINC migration assay; format: cell-based, human; conditions: for EC25 migration (+NADPH): metabolite mixture generated with NADPH; for EC25 migration (+NADPH) / EC25 migration (−NADPH): nominal concentration of parent; for EC25 migration (−NADPH): metabolite mixture generated without NADPH; for fold change of potency (EC25) between NADPH-independent and -dependent metabolite mixtures: potency increased with NADPH
Method: Figure 6 The transfer of the metabolisation module to the neural crest cell migration assay (cMINC). (A) A schematic of the cMINC (circular migration of neural crest cells) assay. The cells were seeded around a central stopper to create a cell-free circular area. Migration was initiated 24 h after seeding by removing the stopper. This is defined as the day of migration (DoM) 0. On DoM 1, the cells were exposed to toxicants. After 24 h of exposure, both cell migration and viability were quantified, using automated high-content imaging. (B) Compatibility of the metabolisation module (preincubation with 500 µg/mL S9 at 37 °C for 2 h) with the cMINC assay: The setup was as described in Figure 4 and as exemplified in Figure 5A. No compound was added (solvent control). The S9 mixture (at 500 µg/mL ± NADPH) was added to the normal cell culture medium of the cMINC assay (so that the addition was 10% of the total volume). Data are from three independent experiments. (C,D) The concentration-dependent effects on migration were evaluated for metabolite mixtures generated from bromethalin (C) or chlorfenapyr (D). […] The arrows indicate the direction of sensitivity shift between NADPH-dependent and -independent metabolite mixtures, with accompanying fold change values. The concentrations are given as nominal concentrations of the parent compound. Abbreviations: n.s., not significant. TEXT PRINTED IN THE PICTURE: (C) Bromethalin: x30 | (D) Chlorfenapyr: x15
The MINC assay was performed as previously described. Briefly, 96-well plates were prepared by inserting a central 2 mm diameter stopper (Platypus Technologies, Madison, WI, USA) into pre-coated wells with a composite poly-L-ornithine (PLO; 10 µg/mL), fibronectin (1 µg/mL), and laminin (1 µg/mL) matrix. Cryopreserved human induced pluripotent stem cell (hiPSC)-derived neural crest-like cells were thawed and seeded at a density of 95,000 cells/cm^2 around the stopper to create a defined, cell-free circular area. The cells were cultured in N2-S medium supplemented with […] of the cytokines EGF and FGF. After 24 h, the stoppers were removed and the medium refreshed to initiate cell migration into the cell-free centre (defined as the day of migration, DoM 0). On DoM 1, the cells were exposed to test compounds by the addition of a 5× concentrated toxicant solution. After a further 24 h (DoM 2), cell migration and viability were assessed. The cells were stained with 0.5 µM calcein-AM and 1 µg/mL Hoechst 33342 (both from Sigma-Aldrich, Steinheim, Germany). High content imaging was performed, and data were analysed using the RingAssay V1 software (http://invitrotox.uni-konstanz.de/, accessed on 3 February 2025).
In the first step, matched technical replicates were averaged. […] For visualisation, GraphPad Prism 9 was used.
The supernatant was used further.

[2] = Homo sapiens, benchmark response 25%, neurite area, 24 h exposure, three independent experiments

N#Cc1c(-c2ccc(Cl)cc2)[nH]c(C(F)(F)F)c1Br [Tralopyril]
IC25 (LUHMES cells; [2]): 0.35 µM | fold change between BMC25 values of parent and metabolite (potency ratio, parent divided by metabolite) (LUHMES cells): > 29 fold

CCOCn1c(-c2ccc(Cl)cc2)c(C#N)c(Br)c1C(F)(F)F [Chlorfenapyr]
EC25 migration (+NADPH) [1]: 0.6 µM | EC25 migration (−NADPH) [1]: 9 µM | fold change of potency (EC25) between NADPH-independent and -dependent metabolite mixtures [1]: 15 fold | IC25 (LUHMES cells; [2]): > 10 µM

O=C(c1ccccc1)c1ccc(O)cc1 [4-Hydroxybenzophenone]
IC25 (LUHMES cells; [2]): 78 µM | fold change between BMC25 values of parent and metabolite (potency ratio, parent divided by metabolite) (LUHMES cells): > 6 fold

CN(c1c(Br)cc(Br)cc1Br)c1c([N+](=O)[O-])cc([N+](=O)[O-])cc1C(F)(F)F [Bromethalin]
EC25 migration (+NADPH) [1]: 0.026 µM | EC25 migration (−NADPH) [1]: 0.79 µM | fold change of potency (EC25) between NADPH-independent and -dependent metabolite mixtures [1]: about 30 fold | IC25 (LUHMES cells; Homo sapiens, 24 h): 0.79 µM | IC25 (LUHMES cells; benchmark response 25%, neurite area, 24 h exposure, three independent experiments): 0.79 µM
